Measurements as given in US12336991B2, “Factor XIIA inhibitors” (UNIVERSITY OF LEEDS, priority 2018, dated 2025).

Tests used:
Format in all cases: biochemical
thrombin = biological target: T1, thrombin (Homo sapiens, UniProt P00734); assay: Determination of selectivity: thrombin inhibition, chromogenic substrate GPR assay; conditions: fold selectivity for FXIIa over thrombin
T1 construct: FXa (5 nM) and thrombin (5 nM)
Description: (§1) The activities of the compounds of the invention have been determined in vitro using the following assays protocols for the screening of activity of FXIIa and other proteases. Each of these assays were performed in a purified system employing the use of chromogenic assays in microplate plate wells. Chromogenic peptide substrates mimicking natural protein substrates are attached via an amide bond to a chromogenic group. Paranitroaniline (pNA) is released from the peptide following catalyses by the proteolytic enzyme; the absorbance increases and can be monitored at 405 nm.
(§2) All compounds were dissolved in 100% (v/v) DMSO to a stock concentration of 10 mM, the highest concentration of compound used in each assay is 500 μM. The final concentrations of DMSO were 5% (v/v) in 50 mM Tris 137 mM NaC pH 7.4. Where no test compound was added a final concentration of 5% DMSO was employed.
(§3) Determination of Selectivity
(§4) To determine selectivity of test compounds, these test compounds were assayed for inhibitory activity against other serine proteases including FXa and thrombin. Essentially compounds at increasing concentrations were incubated with each enzyme: FXa (5 nM) and thrombin (5 nM), for 10 mins at 37° C. followed the appropriate chromogenic substrate, S2765 ([…]), and GPR ([…]) respectively in 50 mM Tris, 137 mM NaCl, pH 7.4. Chromogenic substrates S2765 was from Chromogenix, and GPR from Bachem. Kinetic readings at 405 nm were monitored every 12 secs for a total duration of 3 hours at 37° C. Gradients of initial rates were determined and employed to calculate IC50 values. Values of IC50 were converted to Ki values based on the formula: Ki=IC50/(1+[Substrate]/Km)
(§5) Where [Substrate] denotes the concentration of substrate used in the assay and Km is the determined value of each enzyme with its own substrate.
(§6) The fold selectivity for FXIIa over thrombin for the compounds of the invention has been categorised based on the fold selectivity values, the categories being “+”, “++” and “+++”. The category “+” refers to fold selectivity values less than 10. The category “++” refers to a fold selectivity value of 10 to 100. The category “+++” refers to fold selectivity values greater than 100.

FXa = FXa (Homo sapiens, UniProt P00742); assay: Determination of selectivity: FXa inhibition, chromogenic substrate S2765 assay; conditions: fold selectivity for FXIIa over FXa
Chain of FXa (P00742 235-488 limits assumed): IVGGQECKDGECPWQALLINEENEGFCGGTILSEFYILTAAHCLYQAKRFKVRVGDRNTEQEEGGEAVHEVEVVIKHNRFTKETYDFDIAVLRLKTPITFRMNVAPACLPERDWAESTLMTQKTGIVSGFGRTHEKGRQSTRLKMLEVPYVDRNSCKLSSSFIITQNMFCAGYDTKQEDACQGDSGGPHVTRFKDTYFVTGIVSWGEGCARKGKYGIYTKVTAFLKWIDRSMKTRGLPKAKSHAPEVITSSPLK
Chain of FXa (P00742 41-179 partner limits assumed): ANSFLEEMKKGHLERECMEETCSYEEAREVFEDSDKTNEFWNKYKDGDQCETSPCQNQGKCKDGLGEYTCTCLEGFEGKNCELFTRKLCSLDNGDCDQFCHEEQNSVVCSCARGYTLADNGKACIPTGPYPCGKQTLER
Description: as §1, §2, §3, §4, §5, §6
The fold selectivity for FXIIa over FXa for the compounds of the invention has been categorised based on the fold selectivity values, the categories being “o”, “oo” and “ooo”. The category “o” refers to fold selectivity values less than 10. The category “oo” refers to a fold selectivity value of 10 to 100. The category “ooo” refers to fold selectivity values greater than 100.

FXIIa = biological target: T2, FXIIa (Homo sapiens, UniProt P00748); assay: Determination of Factor XIIa inhibition, chromogenic substrate S-2302 assay; conditions: human FXIIa alpha
T2 sequence (P00748 373-615 limits assumed): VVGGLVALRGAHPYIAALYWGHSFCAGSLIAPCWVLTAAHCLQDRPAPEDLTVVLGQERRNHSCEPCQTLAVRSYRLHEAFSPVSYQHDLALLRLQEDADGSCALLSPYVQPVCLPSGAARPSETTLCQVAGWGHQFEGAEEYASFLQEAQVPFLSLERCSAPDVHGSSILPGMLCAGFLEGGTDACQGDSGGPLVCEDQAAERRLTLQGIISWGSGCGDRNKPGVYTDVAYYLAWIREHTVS
T2 sequence (P00748 20-372 partner limits assumed): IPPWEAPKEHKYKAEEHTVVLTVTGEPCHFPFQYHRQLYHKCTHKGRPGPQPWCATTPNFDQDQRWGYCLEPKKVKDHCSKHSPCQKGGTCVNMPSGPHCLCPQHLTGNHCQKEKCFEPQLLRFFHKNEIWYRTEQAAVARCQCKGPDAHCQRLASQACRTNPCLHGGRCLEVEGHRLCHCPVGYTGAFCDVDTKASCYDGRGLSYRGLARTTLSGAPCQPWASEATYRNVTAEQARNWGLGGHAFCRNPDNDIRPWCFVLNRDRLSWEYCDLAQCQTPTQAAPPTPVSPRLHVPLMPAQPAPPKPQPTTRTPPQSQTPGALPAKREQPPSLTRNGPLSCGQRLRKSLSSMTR
Description: as §1, §2
Determination of Factor XIa Inhibition
Factor XIa activity was measured using a chromogenic substrate S-2302 (Chromogenix). Various concentrations of compound were incubated with 10 nM of FXIIa and incubated at 37° C. for 10 minutes in 50 mM Tris, 137 mM NaCl, pH 7.4, prior to the addition of a final concentration of 450 µM S-2302 chromogenic substrate. Kinetic readings at 405 nm were monitored every 12 secs for a total duration of 3 hours at 37° C. Gradients of initial rates were determined and employed to calculate IC50 values. Values of IC50 were converted to Ki values based on the formula: Ki=IC50/(1+[Substrate]/Km).
The activity of the compounds of the invention has been categorised based on the Ki values, the categories being “*”, “**” and “***”. […] The category “**” refers to compounds with a Ki value of 0.2 μM to 2 μM.

Compound | Thrombin (human)/FXIIa alpha (human) (thrombin) | FXa (human)/FXIIa alpha (human) (FXa) | Ki (FXIIa) [nM]
Cn1nccc1C[C@H]1C[C@@H](C(=O)NCc2ccc3c(c2)nnn3C)N(C(=O)[C@H](N)CCC(=O)N2CCCC2)C1 [Example M05294] | ++ (fold selectivity value of 10 to 100) | ∘∘∘ | 200 to 2000
Nc1cc(CNC(=O)[C@@H]2C[C@H](NC(=O)c3ccccc3)CN2C(=O)[C@H](N)CCc2ccccc2)ccn1 [Example M05142] | + (fold selectivity values less than 10) | ∘∘ | 200 to 2000
Cc1nn(C)c2ccc(CNC(=O)[C@@H]3C[C@@H](Cc4ccncc4)CN3C(=O)[C@H](N)CCC(=O)N3CCCC3)cc12 [Example M05278] | ++ (fold selectivity value of 10 to 100) | ∘∘∘ | 200 to 2000
COc1ccc(C[C@@H]2C[C@@H](C(=O)NCc3ccc4c(c3)nnn4C)N(C(=O)[C@H]3C[C@@H](C(=O)N4CCCC4)CCN3)C2)cc1 [Example M05490] | +++ (fold selectivity values greater than 100) | ∘∘∘ | < 200
Cn1nnc2cc(CNC(=O)[C@@H]3C[C@@H](Cc4ccncc4)CN3C(=O)[C@@H](CCC(=O)N3CCCC3)NCC(F)F)ccc21 [Example M05269] | ++ (fold selectivity value of 10 to 100) | ∘∘ | > 2000
Cn1nnc2cc(CNC(=O)[C@@H]3C[C@@H](Cc4ccccc4C#N)CN3C(=O)[C@H]3C[C@@H](c4ccccc4)CN3)ccc21 [Example M05337] | ++ (fold selectivity value of 10 to 100) | ∘∘ | > 2000
COc1ccc(C[C@@H]2C[C@@H](C(=O)NCc3ccc4c(c3)nnn4C)N(C(=O)[C@H]3CC(c4ccc(Cl)cc4)CN3)C2)cc1 (stereo partly drawn) [Example M05346] | ++ (fold selectivity value of 10 to 100) | ∘∘ | > 2000
Cn1nnc2cc(CNC(=O)[C@@H]3C[C@H](Cc4cccc(Cl)c4)CN3C(=O)[C@H](N)CCC(=O)N3CCCC3)ccc21 [Example M05210, (2S,4S)-1-((R)-2-amino-5-oxo-5-pyrrolidin-1-yl-pentanoyl)-4-(3-chloro-benzyl)-pyrrolidine-2-carboxylic acid (1-methyl-1H-benzotriazol-5-ylmethyl)-amide] | +++ (fold selectivity values greater than 100) | ∘∘∘ | 200 to 2000
COc1ccc(C[C@@H]2C[C@@H](C(=O)NCc3ccc4c(Cl)nn(C)c4c3)N(C(=O)[C@H](N)CCC(=O)N3CCCC3)C2)cc1 [Example M05449] | +++ (fold selectivity values greater than 100) | ∘∘∘ | < 200
Cn1nnc2cc(CNC(=O)[C@@H]3C[C@@H](Cc4ccccc4Cl)CN3C(=O)[C@H]3C[C@@H](c4ccccc4)CN3)ccc21 [Example M05333] | ++ (fold selectivity value of 10 to 100) | ∘ | > 2000

Results, then the compound that gave them:

Thrombin (human)/FXIIa alpha (human) (thrombin) | FXa (human)/FXIIa alpha (human) (FXa) | Ki (FXIIa) [nM] | Compound
+ (fold selectivity values less than 10) | ∘∘ | > 2000 | COc1ccc(C[C@@H]2C[C@@H](C(=O)NCc3ccc4c(c3)nnn4C)N(C(=O)[C@H]3CC(c4c(C)noc4C)CN3)C2)cc1 (stereo partly drawn) [Example M05409]
++ (fold selectivity value of 10 to 100) | ∘∘ | > 2000 | COc1ccc(C[C@@H]2C[C@@H](C(=O)NCc3ccc4c(c3)nnn4C)N(C(=O)C3NCCc4cc(Br)ccc43)C2)cc1 (stereo partly drawn) [Example M05471]
